Data published in patent publication US20040034049A1, “Promoters for the proliferation and differentiation of stem cells and/or neuron precursor cells” (priority 2003, published 2004).

The compounds below were run on rat mixed glia culture (assay: Neural neogenesis promoting effect in rat mixed glia culture (differentiation assay, β III tubulin positive cell count)). Settings: 120 h, 1 μM compound, 5 days differentiation, β III tubulin positive cells, % activity based on non-treatment control, read-out: Differentiation or neogenesis promoting activity (%).
Excerpt: Neural Neogenesis Promoting Effect in Rat Mixture Glia Culture
A neonatal SD rat was purchased from Charles River Japan, Inc. A nylon cell strainer with 40 micron in diameter was purchased from Becton Dickinson. DMEM/F12 Medium, antibiotics, N2 additives were purchased from LIFE TECHNOLOGY. Anti-β III-tubulin antibody was purchased from Sigma. DAKO EnVision+/HRP kit was purchased from DAKO Japan. Other reagents were commercial products of analytical grade.
A rat mixed glia culture was made from a hippocampus of a neonatal SD rat of 2 days old. The neonate was anesthetized by ice-cooling, sacrificed by decapitation and the brain was taken out immediately. The meninx was removed carefully, and the […] was separated. The hippocampus was pulverized mechanically by passing through a nylon cell strainer with 40 micron in diameter. The cell dispersion was overlaid on serum, and the cells were fractionated by a non-continuous gradient centrifugation. The pellet was washed twice with a growth medium (DMEM/F12 supplemented with 10% FBS and antibiotics) and then dispersed. The mixed glia culture was inoculated onto a collagen-coated 96-well multiplate at the density of 1×10^5 cells per well, and incubated for 5 days.
After incubating for 5 days, the mixed glia culture was subjected to a differentiation assay. The growth medium was replaced with a serum-free medium (DMEM/F12 supplemented with N2 additives and antibiotics) and the test compound was added simultaneously. After allowing to undergo the differentiation for 5 days followed by fixation with 4% p-formaldehyde, a mouse anti-β III tubulin monoclonal antibody and DAKO EnVision+/HRP kit was used to effect an immunostaining.
The β III tubulin positive cells were counted, and the data in the presence (1 μM) of the Compound (I) and the absence (control) were compared.

Row | SMILES | activity at 1 µM [%]
1 | Cc1c(C)c2c(c(C)c1NCc1ccc(F)cc1)C(c1ccc(C(C)C)cc1)C(C)(C)O2 (stereo not drawn) [Example 19b, N-(4-fluorobenzyl)-3-(4-isopropylphenyl)-2,2,4,6,7-pentamethyl-2,3-dihydro-1-benzofuran-5-amine] | 468
2 | COc1cc2c(cc1OC)CN(c1c(C)c(C)c3c(c1C)[C@@H](c1ccc(C)cc1)C(C)(C)O3)C2 [Example 17a, (R)-5,6-dimethoxy-2-[2,2,4,6,7-pentamethyl-3-(4-methylphenyl)-2,3-dihydro-1-benzofuran-5-yl]isoindoline] | 344
3 | COc1cc2c(cc1OC)CN(c1c(C)c(C)c3c(c1C)C(c1ccc(C(C)C)cc1)C(C)(C)O3)C2 (stereo not drawn) [Example 11a, 5,6-dimethoxy-2-[3-(4-isopropylphenyl)-2,2,4,6,7-pentamethyl-2,3-dihydro-1-benzofuran-5-yl]isoindoline] | 478
